{
  "source": "ChEMBL document CHEMBL2069174",
  "about": "“Novel 2-methoxyacylhydrazones as potent, selective PDE10A inhibitors with activity in animal models of schizophrenia” (Bioorg Med Chem Lett, 2012)",
  "key": {"[1]": {"test": "(§1) Ratio of drug level in brain to plasma in mouse", "type": "ADME, organism-based", "details": "brain and plasma, read-out: BPR"}, "Mus musculus": {"tested_on": "Mus musculus", "test": "Oral bioavailability in mouse", "type": "ADME, organism-based", "details": "in vivo"}, "Nucleic Acid": {"tested_on": "Nucleic Acid", "test": "as §1", "type": "ADME, organism-based", "details": "brain"}, "[2]": {"test": "Metabolic stability of the compound in simulated gastric fluid", "type": "physicochemical", "details": "simulated gi fluid"}},
  "data": [
    {"smiles": "COc1cc(/C=N/NC(=O)C(OC)c2ccc(N3CCOCC3)cc2)cc(OC)c1Br", "note": "(single isomer, unassigned; enantiomer 1)", "values": [
      {"measurement": "Kp", "setting": "[1]", "value": 0.27},
      {"measurement": "F", "setting": "Mus musculus", "value": 91, "unit": "%"}
    ]},
    {"smiles": "COc1cc(/C=N/NC(=O)C(OC)c2ccc(N3CCOCC3)cc2)cc(OC)c1Br", "note": "(racemic)", "values": [
      {"measurement": "BPR", "setting": "Nucleic Acid", "value": 0.37},
      {"measurement": "F", "setting": "Mus musculus", "value": 63, "unit": "%"},
      {"measurement": "Stability", "setting": "[2]", "value": "Stable"}
    ]},
    {"smiles": "COc1cc(/C=N/NC(=O)C(OC)c2ccc(-n3cccn3)cc2)cc(OC)c1Br", "note": "(racemic)", "values": [
      {"measurement": "BPR", "setting": "Nucleic Acid", "value": 0.39},
      {"measurement": "F", "setting": "Mus musculus", "value": 48, "unit": "%"}
    ]},
    {"smiles": "COc1cc(/C=N/NC(=O)C(OC)c2ccc(-n3cccn3)cc2)cc(OC)c1Br", "note": "(stereo in doubt; 61)", "values": [
      {"measurement": "BPR", "setting": "Nucleic Acid", "value": 0.12},
      {"measurement": "F", "setting": "Mus musculus", "value": 92, "unit": "%"},
      {"measurement": "Stability", "setting": "[2]", "value": "Stable"}
    ]}
  ]
}
